According to paper PMC12114619, “Nifuroxazide and 4-Hydroxybenzhydrazone Derivatives as New Antiparasitic (Trypanosoma cruzi and Leishmania mexicana) and Anti-Mycobacterium tuberculosis Agents” (Pharmaceutics, 2025):
Converted amounts (≈) assume the structure as drawn.

What was measured:
[1] = tested on: T. cruzi strain A1 epimastigotes; assay: Trypanocidal activity, T. cruzi epimastigotes, A1 strain (resazurin); format: cell-based, Trypanosoma cruzi; details: 48 h
[2] = tested on: L. mexicana MHOM/MX/2017/UABJO17FCQEPS promastigotes; assay: Leishmanicidal activity, L. mexicana promastigotes, FCQEPS isolate (MTT); format: cell-based, Leishmania mexicana; details: 48 h, FCQEPS strain
Method: (§1) For leishmanicidal assays, the reference strain (MNYC/BZ/62/M379) and the isolate (MHOM/MX/2017/UABJO17FCQEPS) of L. mexicana were used. Promastigotes were cultured in RPMI 1640 medium supplemented with 10% FBS, 100 U/mL penicillin-100 […] streptomycin, and glutamine (2 mM). 100 µL parasites (5 × 10^5/mL) were added in a 96-well plate, and 100 µL of appropriate concentrations (0.78 to 200 µM) of each sample dissolved in DMSO and incubated for 48 h at 26 °C. Wells containing promastigotes with DMSO 0.2% were used as a negative control, and the reference drug glucantime was included as the positive control. The 3-(4,5-Dimethylthiazol-2-yl)-2,5-diphenyltetrazolium bromide (MTT) was used to measure metabolic activity. The IC50 values were calculated with the probit statistical tool. All samples were evaluated in triplicate in three independent experiments.

[3] = tested on: L. mexicana MNYC/BZ/62/M379 promastigotes; assay: Leishmanicidal activity, L. mexicana promastigotes, M379 strain (MTT); format: cell-based, Leishmania mexicana; details: 48 h
Method: as §1

[4] = tested on: T. cruzi NINOA (MHOM/MX/1994/NINOA) strain epimastigotes; assay: Trypanocidal activity, T. cruzi epimastigotes, NINOA strain (resazurin); format: cell-based, Trypanosoma cruzi; details: 48 h
[5] = tested on: M. tuberculosis H37Rv (ATCC 27294); assay: Anti-Mycobacterium activity, microplate Alamar Blue Assay (MABA); format: cell-based, Mycobacterium tuberculosis; details: H37Rv strain, minimum concentration achieving 90% inhibition; for MIC: Mycobacterium tuberculosis
Method: The reference strain H37Rv (ATCC 27294) of M. tuberculosis was utilized to assess anti-M. tuberculosis activity using the microplate Alamar Blue Assay (MABA), as previously reported. Samples underwent evaluation in triplicate independent experiments. Isoniazid, rifampicin, moxifloxacin, and linezolid were included as reference drugs, and the minimum drug concentration that achieved 90% inhibition was recorded as the minimum inhibitory concentration (MIC).

[6] = Cytotoxicity on macrophages (MTT); format: cell-based, mouse; details: mouse, Cytotoxicity (CC50) Macrophages J774.2
Method: Cytotoxicity was assessed on J774.2 mouse macrophage cells (ATCC® TIB-67, ATCC, Manassas, VA, USA). Cells were cultured in RPMI medium supplemented with 10% SFB, 100 U µg/mL penicillin-100 mg/mL streptomycin, and glutamine (2 mM) at 37 °C and in a 5% CO2 atmosphere. A known concentration of cells (1 × 10^6/mL) was incubated with the compounds at different concentrations (0.78 to 200 µM) for 48 h at 37 °C in a CO2 atmosphere (5%). Wells containing cells treated with 0.2% DMSO were used as a negative control. MTT was employed to evaluate the metabolic activity. Next, the cell viability was calculated (%), and the cytotoxic concentration (CC50) was determined with probit analysis. All samples were evaluated in triplicate in three independent experiments.

Row | SMILES | IC50 [1] | IC50 ([1]; Trypanosoma cruzi) | IC50 ([2]; Leishmania mexicana) | IC50 [3] | IC50 ([3]; Leishmania mexicana) | IC50 T. cruzi NINOA [4] | IC50 ([4]; Trypanosoma cruzi) | MIC [5] | CC50 at 48 h [6] | IC50 [4] | IC50 L. mexicana M379 [3] | MABA MIC [5] | IC50 [2] | IC50 ([4]; listed as Bzn)
1 | O=C(N/N=C/c1cc2c(cc1[N+](=O)[O-])OCO2)c1ccc(O)cc1 [Nfz-23] | 13.5 ± 3.4 µM | 13.5 µM | > 200 µM | 16 ± 2 µM | < 20 µM | loss of the activity | > 100 µM | > 100 µg/mL | 68.9 ± 6.6 µM | – | – | – | – | –
2 | O=C(N/N=C/c1ccccc1)c1ccc(O)cc1 [Nfz-6] | 74.4 ± 4.4 µM | > 70 µM | > 200 µM | 94.22 ± 0.9 µM | > 90 µM | inactive | > 100 µM | > 100 µg/mL | 28.8 ± 1.5 µM | – | – | – | – | –
3 | COc1cccc(/C=N/NC(=O)c2ccc(O)cc2)c1OC [Nfz-13] | – | > 100 µM | 124.5 ± 1.1 µM | – | 162 ± 6.9 µM | – | > 60 µM | 158 µg/mL (≈ 525 µM) | > 100 µM | 63.1 ± 1.4 µM | – | – | – | –
4 | O=C(N/N=C/c1ccc(Br)s1)c1ccc(O)cc1 [Nfz-2] | – | > 100 µM | 98.8 ± 5.2 µM | – | > 200 µM | – | 4.7 µM | < 20 µg/mL | 95.5 ± 4.2 µM | 4.77 ± 5.6 µM | no leishmanicidal effects | 18.8 µg/mL | – | –
5 | O=C(N/N=C/c1cccs1)c1ccc(O)cc1 [Nfz-3] | 20 ± 1.9 µM | 19.9 µM | 49.8 ± 5 µM | – | > 200 µM | – | > 50 µM | > 100 µg/mL | – | 51 ± 2.8 µM | no leishmanicidal effects | – | – | –
6 | O=C(N/N=C/c1ccccc1O)c1ccc(O)cc1 [Nfz-10] | 8.77 ± 1.6 µM | 8.7 µM | > 200 µM | 66.7 ± 2.9 µM | > 50 µM | – | > 100 µM | < 50 µg/mL | > 100 µM | – | – | 47.6 µg/mL | – | –
7 | O=C(N/N=C/c1ccc([N+](=O)[O-])s1)c1ccc(O)cc1 [Nfz-1] | 14 ± 1.9 µM | < 15 µM | < 40 µM | – | > 200 µM | – | 11.9 µM | – | 43.3 ± 2.7 µM | 11.9 ± 3.2 µM | no leishmanicidal effects | – | 32.9 ± 7 µM | –
8 | NNC(=O)c1ccncc1 [Isoniazid, reference compound] | – | – | – | – | – | – | – | 0.039 µg/mL (≈ 0.284 µM) | – | – | – | – | – | –
9 | O=C(Cn1ccnc1[N+](=O)[O-])NCc1ccccc1 [Benznidazole, reference compound] | 39.1 ± 0.7 µM | 39 µM | – | – | – | – | > 30 µM | – | – | – | – | – | – | 30 µM
10 | CCc1ccc(/C=N/NC(=O)c2ccc(O)cc2)cc1 [Nfz-8] | 7.28 ± 2.2 µM | 7.2 µM | > 200 µM | – | – | – | 14.4 µM | 79.4 µg/mL (≈ 296 µM) | > 100 µM | 14.5 ± 4.4 µM | – | – | – | –
11 | O=C(N/N=C/c1ccc(O)cc1)c1ccc(O)cc1 [Nfz-9] | – | > 100 µM | 94.3 ± 5.9 µM | – | – | – | 24.9 ± 3.2 µM | 94.1 µg/mL (≈ 367 µM) | 82.7 ± 4.4 µM | – | – | – | – | –
12 | CO[C@H]1/C=C/O[C@@]2(C)Oc3c(C)c(O)c4c(O)c(c(/C=N/N5CCN(C)CC5)c(O)c4c3C2=O)NC(=O)/C(C)=C\C=C\[C@H](C)[C@H](O)[C@@H](C)[C@@H](O)[C@@H](C)[C@H](OC(C)=O)[C@@H]1C [Rifampin, reference compound] | – | – | – | – | – | – | – | 0.074 µg/mL (≈ 0.0899 µM) | – | – | – | – | – | –
13 | CC(=O)Nc1ccc(/C=N/NC(=O)c2ccc(O)cc2)cc1 [Nfz-24] | 22.2 ± 1.4 µM | 22.1 µM | 55.8 ± 3.5 µM | 54.2 ± 4 µM | 54.1 µM | – | – | > 100 µg/mL | > 100 µM | – | – | – | – | –
14 | COc1c(N2C[C@@H]3CCCN[C@@H]3C2)c(F)cc2c(=O)c(C(=O)O)cn(C3CC3)c12 [Moxifloxacin, reference compound] | – | – | – | – | – | – | – | 0.184 µg/mL (≈ 0.458 µM) | – | – | – | – | – | –
